Source: patent US20240041827A1, “COMPOSITIONS FOR THE TREATMENT OF FAT RELATED CONDITIONS AND DISORDERS” (priority 2020, published 2024)
Like-named read-outs stand apart in the source and are kept apart here.

System: human visceral preadipocytes
Assay: cells
Conditions: for IC50: Homo sapiens
Method: Human visceral preadipocytes were seeded in 96-well white clear bottom plates at 10,000 cells per well in 100 μl pre-adipocyte medium and incubated overnight at 37° C. 5% CO2. On the following day, adipogenic differentiation was induced by addition of 100 μl/well differentiation medium and incubation continued for 5 days. Adipogenic differentiation was verified by microscopic evaluation, addition of adipored reagents and fluorescent measurement at Ex485 nm/Em572 nm. […] Staurosporine (1 μM) and 0.2% DMSO were used as controls. Plates were incubated at 37° C. 5% CO2 for 2, 6 and 24 hours. Following incubation, cytotoxicity was measured using Cell Titer Glo 2.0 (Promega).
Test Item RZL-12 (1-300 μM) was prepared on the day of the testing as 150 mM stock solutions in DMSO. The 150 mM represents a 500×stock of the highest desired tested concentration. The 150 mM stock solution was first serially diluted in DMSO to acquire 500×stock solutions for each of the RZL-012 concentrations. The 500×stock solutions were then diluted 1:25 in medium to acquire 20×intermediate stock solutions. Finally, the 20×intermediate stock solutions were further diluted 1:20 in the assay (on the plate) that included seeded cells.
The 600 μM represents a 20× stock of the highest desired tested concentration. […] Finally, the 20×intermediate stock solutions were further diluted 1:20 in the assay plate that included seeded cells.
Human visceral pre-adipocytes (HPrAD-vis): HPrAD-vis cells (Lonza cat #PT-5005) were thawed at 37° C. and transferred into 50 ml tubes containing pre-adipocytes PGM-2 growth medium (PBM-2, 10% FBS, 1-glutamine, GA-1000). Cells were centrifuged at 300 g for 10 minutes, the supernatant was removed (Leaving about 1 ml of wash medium for not disrupting the cells) and 2 ml fresh PGM-2 medium was added. After resuspension, cells were counted and seeded in T-75 and T25 flasks at a density of 9,000 cells/cm^2 ([…], 225,000 cells/T25 flask). Medium was changed every 2-3 days until reached confluence of 70%.
Cells were sub-cultured only once, as soon as they reached 70% confluence. For this purpose, the culture medium of each flask was removed and cells were washed once with 5 ml PBS. The flask was shaken to ensure that the entire surface was covered and the PBS was removed. Then, 3 ml/T75 flask or 1 ml/T25 flask of fresh dedicated Trypsin/EDTA solution (from Lonza) was added and the flasks were incubated for 3-4 minutes at RT until ˜90% cells were detached. The Trypsin/EDTA solution was then neutralized by addition of 6 ml/T75 flask or 3 ml/T25 flask of full PGM-2 growth medium. Cells were collected in 50 ml tubes and centrifuged 10 minutes at 300 g. The supernatant was removed and the cells were resuspended in 3 ml fresh medium. Cells were then counted using a haemacytometer slide after being diluted 1:2 in trypan blue (SIGMA). For sub-culturing, cells were seeded in new T75 flasks at a density of 9,000 cells/cm^2 containing 15 ml fresh growth medium. Alternatively, the cells were seeded in 96-well culture plates at a density of 10,000 cells/well for the cell treatments.
HPrAD-vis cells: HPrAD-vis passaged once were seeded in 96-well plates as described above (10000cells/well in 100 μl medium) and allowed to settle overnight at 37° C., 5% CO2. Following day, adipogenic differentiation was induced by addition of 100 μl/well differentiation medium and incubated for 5 days. Adipogenic differentiation was verified by microscopic evaluation, addition of adipored reagents and fluorescent measurement at Ex485 nm/Em572 nm. In the morning of day 6, test and reference items were prepared as described above. Cells' medium was replaced with 90 μl fresh differentiation medium. […] Staurosporine (1 μM) and 0.2% DMSO were used as controls. Plates were incubated at 37° C. 5% CO2 for 2, 6 and 24 hours. Following incubation, cell viability was determined using the CellTiter-Gg® viability reagent (Promega) with reading of plates for luminescence. […]

SMILES: C[N+](C)(C)CCCCCn1c2ccc(Br)cc2c2cc(Br)ccc21.[Cl-] [RZL-012, 5-(3,6-dibromo-9H-carbazol-9-yl)-N,N,N-trimethylpentan-1-aminium chloride]
- IC50 (2 h, read-out: IC50 of RZL-12 in the presence of Collagenase, Collagenase 0, 2 h incubation): 31.4 µM
- IC50 (2 h, read-out: IC50 of RZL-12 in the presence of Collagenase, Collagenase 0.1 μM, 2 h incubation): 32.4 µM
- IC50 (2 h, read-out: IC50 of RZL-12 in the presence of Collagenase, Collagenase 0.3 μM, 2 h incubation): 35.7 µM
- IC50 (2 h, read-out: IC50 of RZL-12 in the presence of Collagenase, Collagenase 1 μM, 2 h incubation): 32.6 µM
- IC50 (2 h, read-out: IC50 of RZL-12 in the presence of Collagenase, Collagenase 3 μM, 2 h incubation): ~31.2 µM
- IC50 (2 h, read-out: IC50 of RZL-12 in the presence of Collagenase, Collagenase 10 μM, 2 h incubation): 71.3 µM
- IC50 (2 h, read-out: IC50 of RZL-12 in the presence of Collagenase, Collagenase 30 μM, 2 h incubation): ~93.2 µM
- IC50 (6 h, read-out: IC50 of RZL-12 in the presence of Collagenase, Collagenase 0, 6 h incubation): 34.6 µM
- IC50 (6 h, read-out: IC50 of RZL-12 in the presence of Collagenase, Collagenase 0.1 μM, 6 h incubation): 44.3 µM
- IC50 (6 h, read-out: IC50 of RZL-12 in the presence of Collagenase, Collagenase 0.3 μM, 6 h incubation): 45.1 µM
- IC50 (6 h, read-out: IC50 of RZL-12 in the presence of Collagenase, Collagenase 1 μM, 6 h incubation): 44.2 µM
- IC50 (6 h, read-out: IC50 of RZL-12 in the presence of Collagenase, Collagenase 3 μM, 6 h incubation): ~30.5 µM
- IC50 (6 h, read-out: IC50 of RZL-12 in the presence of Collagenase, Collagenase 10 μM, 6 h incubation): 36.5 µM
- IC50 (6 h, read-out: IC50 of RZL-12 in the presence of Collagenase, Collagenase 30 μM, 6 h incubation): 38.8 µM
- IC50 (24 h, read-out: IC50 of RZL-12 in the presence of Collagenase, Collagenase 0, 24 h incubation): 22.8 µM
- IC50 (24 h, read-out: IC50 of RZL-12 in the presence of Collagenase, Collagenase 0.1 μM, 24 h incubation): 38 µM
- IC50 (24 h, read-out: IC50 of RZL-12 in the presence of Collagenase, Collagenase 0.3 μM, 24 h incubation): 38.5 µM
- IC50 (24 h, read-out: IC50 of RZL-12 in the presence of Collagenase, Collagenase 1 μM, 24 h incubation): ~36.1 µM
- IC50 (24 h, read-out: IC50 of RZL-12 in the presence of Collagenase, Collagenase 3 μM, 24 h incubation): 22.9 µM
- IC50 (24 h, read-out: IC50 of RZL-12 in the presence of Collagenase, Collagenase 10 μM, 24 h incubation): 28.8 µM
- IC50 (24 h, read-out: IC50 of RZL-12 in the presence of Collagenase, Collagenase 30 μM, 24 h incubation): 28.8 µM
- IC50 (read-out: IC50 when combined, RZL-012 and collagenase combined): 0.02 µM
- Average RZL-012 and collagenase induced cell death (% vs untreated cells) (RZL12 0.01 μM, Collagenase 0, 2 h of incubation): 10.0%
- Average RZL-012 and collagenase induced cell death (% vs untreated cells) (RZL12 0.01 μM, Collagenase 0.1 μM, 2 h of incubation): 6.5%
- Average RZL-012 and collagenase induced cell death (% vs untreated cells) (RZL12 0.01 μM, Collagenase 0.3 μM, 2 h of incubation): 0.8%
- Average RZL-012 and collagenase induced cell death (% vs untreated cells) (RZL12 0.01 μM, Collagenase 1 μM, 2 h of incubation): 5.3%
- Average RZL-012 and collagenase induced cell death (% vs untreated cells) (RZL12 0.01 μM, Collagenase 3 μM, 2 h of incubation): 20.5%
- Average RZL-012 and collagenase induced cell death (% vs untreated cells) (RZL12 0.01 μM, Collagenase 10 μM, 2 h of incubation): 30.3%
- Average RZL-012 and collagenase induced cell death (% vs untreated cells) (RZL12 0.01 μM, Collagenase 30 μM, 2 h of incubation): 46.4%
- Average RZL-012 and collagenase induced cell death (% vs untreated cells) (RZL12 1 μM, Collagenase 0, 2 h of incubation): 7.0%
- Average RZL-012 and collagenase induced cell death (% vs untreated cells) (RZL12 1 μM, Collagenase 0, 24 h of incubation): 4.88%
- Average RZL-012 and collagenase induced cell death (% vs untreated cells) (RZL12 1 μM, Collagenase 0.1 μM, 2 h of incubation): 6.5%
- Average RZL-012 and collagenase induced cell death (% vs untreated cells) (RZL12 1 μM, Collagenase 0.1 μM, 24 h of incubation): 8.18%
- Average RZL-012 and collagenase induced cell death (% vs untreated cells) (RZL12 1 μM, Collagenase 0.3 μM, 2 h of incubation): 3.0%
- Average RZL-012 and collagenase induced cell death (% vs untreated cells) (RZL12 1 μM, Collagenase 0.3 μM, 24 h of incubation): −0.25%
- Average RZL-012 and collagenase induced cell death (% vs untreated cells) (RZL12 1 μM, Collagenase 1 μM, 2 h of incubation): 2.0%
- Average RZL-012 and collagenase induced cell death (% vs untreated cells) (RZL12 1 μM, Collagenase 1 μM, 24 h of incubation): 16.48%
- Average RZL-012 and collagenase induced cell death (% vs untreated cells) (RZL12 1 μM, Collagenase 3 μM, 2 h of incubation): 19.2%
- Average RZL-012 and collagenase induced cell death (% vs untreated cells) (RZL12 1 μM, Collagenase 3 μM, 24 h of incubation): 28.74%
- Average RZL-012 and collagenase induced cell death (% vs untreated cells) (RZL12 1 μM, Collagenase 10 μM, 2 h of incubation): 29.9%
- Average RZL-012 and collagenase induced cell death (% vs untreated cells) (RZL12 1 μM, Collagenase 10 μM, 24 h of incubation): 64.29%
- Average RZL-012 and collagenase induced cell death (% vs untreated cells) (RZL12 1 μM, Collagenase 30 μM, 2 h of incubation): 48.0%
- Average RZL-012 and collagenase induced cell death (% vs untreated cells) (RZL12 1 μM, Collagenase 30 μM, 24 h of incubation): 78.45%
- Average RZL-012 and collagenase induced cell death (% vs untreated cells) (RZL12 3 μM, Collagenase 0, 2 h of incubation): 5.9%
- Average RZL-012 and collagenase induced cell death (% vs untreated cells) (RZL12 3 μM, Collagenase 0, 24 h of incubation): 6.40%
- Average RZL-012 and collagenase induced cell death (% vs untreated cells) (RZL12 3 μM, Collagenase 0.1 μM, 2 h of incubation): −1.6%
- Average RZL-012 and collagenase induced cell death (% vs untreated cells) (RZL12 3 μM, Collagenase 0.1 μM, 24 h of incubation): 3.62%
- Average RZL-012 and collagenase induced cell death (% vs untreated cells) (RZL12 3 μM, Collagenase 0.3 μM, 2 h of incubation): 1.1%
- Average RZL-012 and collagenase induced cell death (% vs untreated cells) (RZL12 3 μM, Collagenase 0.3 μM, 24 h of incubation): 2.09%
- Average RZL-012 and collagenase induced cell death (% vs untreated cells) (RZL12 3 μM, Collagenase 1 μM, 2 h of incubation): 6.1%
- Average RZL-012 and collagenase induced cell death (% vs untreated cells) (RZL12 3 μM, Collagenase 1 μM, 24 h of incubation): 16.21%
- Average RZL-012 and collagenase induced cell death (% vs untreated cells) (RZL12 3 μM, Collagenase 3 μM, 2 h of incubation): 18.0%
- Average RZL-012 and collagenase induced cell death (% vs untreated cells) (RZL12 3 μM, Collagenase 3 μM, 24 h of incubation): 27.36%
- Average RZL-012 and collagenase induced cell death (% vs untreated cells) (RZL12 3 μM, Collagenase 10 μM, 2 h of incubation): 26.4%
- Average RZL-012 and collagenase induced cell death (% vs untreated cells) (RZL12 3 μM, Collagenase 10 μM, 24 h of incubation): 63.40%
- Average RZL-012 and collagenase induced cell death (% vs untreated cells) (RZL12 3 μM, Collagenase 30 μM, 2 h of incubation): 47.6%
- Average RZL-012 and collagenase induced cell death (% vs untreated cells) (RZL12 3 μM, Collagenase 30 μM, 24 h of incubation): 77.35%
